Measurements as given in patent publication US20120190579A1, “Functionalisation of Solid Substrates” (priority 2009, published 2012).

System: not given
Assay: not given
Conditions: not given

Row | Compound | melting point
1 | O=C1NC(=O)C(Sc2ccccn2)=C1Sc1ccccn1 | 70 to 72 °C
2 | O=C1NC(=O)C(SCCO)=C1SCCO | 46 to 50 °C
3 | O=C1NC(=O)C(I)=C1I | 238 to 241 °C
4 | O=C1C=C(Br)C(=O)N1 | 148 to 151 °C
5 | O=C1CC2(SCCS2)C(=O)N1 | 112 to 115 °C
6 | O=C(CCCC[C@@H]1SC[C@@H]2NC(=O)N[C@@H]21)NCCOCCOCCN1C(=O)C(Br)=C(Br)C1=O (stereo in doubt) | 100 to 102 °C
7 | O=C1NC(=O)C23NCC[C@H]2C[C@H]13 (some centres unmarked) | 110 to 113 °C

The remaining lines, values ahead:

Row | melting point | Compound
8 | 145 to 147 °C | COC(=O)[C@H](CSC1=CC(=O)NC1=O)NC(=O)OC(C)(C)C
9 | 68 to 76 °C | C=CCCNC1=CC(=O)NC1=O
10 | 106 to 108 °C | CC(C)(C)OC(=O)NCCOCCOCCNC(=O)CCCC[C@@H]1SC[C@@H]2NC(=O)N[C@@H]21 (stereo in doubt)
11 | 95 to 98 °C | O=C(CCCC[C@@H]1SC[C@@H]2NC(=O)N[C@@H]21)NCCOCCOCCN1C(=O)C=C(Br)C1=O (stereo in doubt)
12 | 99 to 101 °C | CCCCCCSC1=CC(=O)NC1=O
13 | 101 to 103 °C | COC(=O)[C@H](CSC1=CC(=O)N(C)C1=O)NC(=O)OC(C)(C)C
14 | 77 to 79 °C | CN1C(=O)C=C(Br)C1=O

Target: T1, human somatostatin receptor 2 (Homo sapiens, UniProt P30874)
T1 construct: host or cells: HEK293 cells stably expressing Kir3.1 and Kir3.2A
T1 sequence (P30874 whole entry): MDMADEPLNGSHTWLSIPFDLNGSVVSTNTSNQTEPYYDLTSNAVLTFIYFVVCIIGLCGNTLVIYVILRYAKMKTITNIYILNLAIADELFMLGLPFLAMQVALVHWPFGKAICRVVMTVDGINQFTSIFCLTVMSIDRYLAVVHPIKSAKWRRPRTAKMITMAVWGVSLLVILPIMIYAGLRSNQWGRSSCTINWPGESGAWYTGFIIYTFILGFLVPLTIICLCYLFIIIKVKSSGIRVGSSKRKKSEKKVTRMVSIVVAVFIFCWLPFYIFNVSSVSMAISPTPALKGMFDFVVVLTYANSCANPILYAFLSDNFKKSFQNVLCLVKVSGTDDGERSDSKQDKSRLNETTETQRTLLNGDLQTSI
Assay: Whole cell patch-clamp current recordings of bridged somatostatin analogues
Format: cell-based
Conditions: Pertussis toxin 100 ng/ml overnight; Tertiapin 100 nM

Row | Compound | GIRK currents after treatment of cells with inhibitor (control)
15 | Tertiapin Q | currents were largely inhibited
16 | Pertussis toxin | currents were largely inhibited

Target: neutravidin-coated agarose beads (Gallus gallus, UniProt P02701)
Assay: Pull-down and release of biotinylated protein adduct on neutravidin coated agarose beads
Conditions: release with β-mercaptoethanol (25 mM) 2 h at 37° C.; densitometry vs protein series dilution
Procedure: Protein/biotin-PEG-bromomaleimide adduct (200 μL) and unmodified model protein (200 μL) were washed independently with PBS buffer (3×500 μL) in a concentrator (Vivaspin, cut off 10 k) yielding protein solutions (300 μL) (In). For each of the protein solutions obtained, neutravidin-coated agarose beads (750 μL of 50% aqueous slurry) were washed with PBS (2×500 μL). Protein solution (300 μL) was then added to the beads and the mixture incubated at 4° C. for 30 mins. The mixture was centrifuged and the flow through (FT) collected. The beads were washed with PBS (2×500 μL) and both wash fractions collected (W1 and W2). Protein was released from the beads by incubation in PBS (300 μL) containing β-mercaptoethanol (25 mM) for 2 h at 37° C. The sample was centrifuged and the eluant (El) containing cleaved GrB2-SH2 domain L111C collected.
The amount of protein recovered was determined as 44% by comparison with a protein series dilution via densitometry. However, correcting for irreversibly physisorbed protein (determined using the unmodified protein control) the corrected recovery was 71%.

Row | Compound | amount of protein recovered
17 | GrB2-SH2 Domain L111C/Biotin-PEG-bromomaleimide Adduct | 44%
